From ChEMBL document CHEMBL1158334, “Two new chymotrypsin inhibitors isolated from the Cyanobacterium Microcystis aeruginosa NIES-88” (J Nat Prod, 2005)

How the values were obtained:
[1] = Inhibition of chymotrypsin
[2] = Inhibition of trypsin

CC(C)[C@@H]1NC(=O)[C@H](Cc2ccc(O)cc2)N(C)C(=O)[C@H](Cc2ccccc2)N2C(=O)[C@H](CC[C@H]2O)NC(=O)[C@H](CCCNC(=N)N)NC(=O)[C@@H](NC(=O)[C@@H](O)COS(=O)(=O)O)[C@@H](C)OC1=O [MICROPEPTIN 90]
IC50 [1]: > 100 µM | IC50 [2]: 0.02 µM

CCCC(=O)N[C@@H](Cc1ccc(O)cc1)C(=O)N[C@@H](CCC(=O)N[C@@H]1C(=O)N[C@@H](Cc2ccc(O)cc2)C(=O)N[C@H]2CC[C@@H](O)N(C2=O)[C@@H](C(C)C)C(=O)N(C)[C@@H](Cc2ccccc2)C(=O)N[C@@H]([C@@H](C)CC)C(=O)O[C@@H]1C)C(=O)OC [MICROPEPTIN 88 F]
IC50 [1]: 3.4 µM | IC50 [2]: > 100 µM

CC(C)CC(NC(=O)[C@H](O)COS(=O)(=O)O)C(=O)N[C@@H]1C(=O)N[C@@H](CCCNC(=N)N)C(=O)N[C@H]2CC[C@@H](O)N(C2=O)[C@@H](CC(C)C)C(=O)N(C)[C@@H](Cc2ccc(O)cc2)C(=O)N[C@@H](C(C)C)C(=O)O[C@@H]1C (single isomer, unassigned)
IC50 [1]: > 100 µM | IC50 [2]: 0.001 µM

CCCCCCCC(=O)N[C@@H](CCC(=O)O)C(=O)N[C@@H]1C(=O)N[C@@H](CCCCN)C(=O)N[C@H]2CC[C@@H](O)N(C2=O)[C@@H](CC(C)C)C(=O)N(C)[C@@H](Cc2ccc(O)cc2)C(=O)N[C@@H](C(C)C)C(=O)O[C@@H]1C [MICROPEPTIN A]
IC50 [1]: > 100 µM | IC50 [2]: 0.07 µM

CCCCCC(=O)N[C@@H](CC(=O)O)C(=O)N[C@@H]1C(=O)N[C@@H](CCCNC(=N)N)C(=O)N[C@H]2CC[C@@H](O)N(C2=O)[C@@H]([C@@H](C)CC)C(=O)N(C)[C@@H](CC(=O)c2ccccc2N)C(=O)N[C@@H](C(C)C)C(=O)O[C@@H]1C [MICROPEPTIN SD999]
IC50 [1]: > 100 µM | IC50 [2]: 4 µM

CCCC(=O)N[C@@H](Cc1ccc(O)cc1)C(=O)N[C@@H](CCC(=O)N[C@@H]1C(=O)N[C@@H](C[C@H]2C=C[C@H](O)CC2)C(=O)N[C@H]2CC[C@@H](O)N(C2=O)[C@@H](C(C)C)C(=O)N(C)[C@@H](Cc2ccccc2)C(=O)N[C@@H]([C@@H](C)CC)C(=O)O[C@@H]1C)C(=O)O [MICROPEPTIN 88 D]
IC50 [1]: 9 µM | IC50 [2]: > 100 µM

CCCCCC(=O)N[C@@H](CC(=O)O)C(=O)N[C@@H]1C(=O)N[C@@H](Cc2ccc(O)cc2)C(=O)N[C@H]2CC[C@@H](O)N(C2=O)[C@@H]([C@@H](C)CC)C(=O)N(C)[C@@H](Cc2c[nH]c3ccccc23)C(=O)N[C@@H](C(C)C)C(=O)O[C@@H]1C [MICROPEPTIN SD1002]
IC50 [1]: 3.2 µM | IC50 [2]: > 100 µM

CCCCCC(=O)N[C@@H](CC(=O)O)C(=O)N[C@@H]1C(=O)N[C@@H](CCCCN)C(=O)N[C@H]2CC[C@@H](O)N(C2=O)[C@@H]([C@@H](C)CC)C(=O)N(C)[C@@H](Cc2ccc(O)cc2)C(=O)N[C@@H](C(C)C)C(=O)O[C@@H]1C [MICROPEPTIN SD944]
IC50 [1]: > 100 µM | IC50 [2]: 8.5 µM

CC[C@H](C)[C@@H]1NC(=O)[C@H](Cc2ccc(O)cc2)N(C)C(=O)[C@H]([C@H](C)O)N2C(=O)[C@H](CC[C@H]2O)NC(=O)[C@H](CC(C)C)NC(=O)[C@@H](NC(=O)[C@H](CCC(N)=O)NC(=O)[C@H](CCc2ccc(O)cc2)NC(=O)[C@H](O)CO)[C@@H](C)OC1=O [OSCILLAPEPTIN G]
IC50 [1]: 4 µM | IC50 [2]: > 100 µM

CC[C@H](C)[C@@H]1NC(=O)[C@H](Cc2ccc(OC)cc2)N(C)C(=O)[C@H]([C@@H](C)CC)N2C(=O)[C@H](CC[C@H]2O)NC(=O)[C@H](CCc2ccc(O)cc2)NC(=O)[C@@H](NC(=O)[C@H](CCc2ccc(O)cc2)NC(=O)[C@@H](COS(=O)(=O)O)OC)[C@@H](C)OC1=O [OSCILLAPEPTIN]
IC50 [1]: 1.9 µM | IC50 [2]: > 100 µM

CCCCCC(=O)N[C@@H](CC(=O)O)C(=O)N[C@@H]1C(=O)N[C@@H](Cc2ccc(O)cc2)C(=O)N[C@H]2CC[C@@H](O)N(C2=O)[C@@H]([C@@H](C)CC)C(=O)N(C)[C@@H](Cc2ccc(O)cc2)C(=O)N[C@@H](C(C)C)C(=O)O[C@@H]1C [MICROPEPTIN SD979]
IC50 [1]: 2.5 µM | IC50 [2]: > 100 µM

CCCC(=O)N[C@@H](Cc1ccc(O)cc1)C(=O)N[C@@H](CCC(=O)N[C@@H]1C(=O)N[C@@H](Cc2ccc(O)cc2)C(=O)N[C@H]2CC[C@@H](O)N(C2=O)[C@@H](C(C)C)C(=O)N(C)[C@@H](Cc2ccccc2)C(=O)N[C@@H]([C@@H](C)CC)C(=O)O[C@@H]1C)C(=O)O [MICROPEPTIN 88 C]
IC50 [1]: 4.6 µM | IC50 [2]: > 100 µM

CC[C@H](C)[C@@H]1NC(=O)[C@H](Cc2ccc(O)cc2)N(C)C(=O)[C@H](Cc2ccccc2)N2C(=O)[C@H](CC[C@H]2O)NC(=O)[C@H](Cc2ccccc2)NC(=O)[C@@H](NC(=O)[C@@H](O)COP(=O)(O)O)[C@@H](C)OC1=O [MICROPEPTIN T 20]
IC50 [1]: 2500 µM | IC50 [2]: > 100 µM

CC[C@H](C)[C@H](NC(=O)[C@H](O)Cc1ccc(O)cc1)C(=O)N[C@@H](CCO)C(=O)N[C@@H]1C(=O)N[C@@H](CCO)C(=O)N[C@H]2CC[C@@H](O)N(C2=O)[C@@H](Cc2ccccc2)C(=O)N(C)[C@@H](Cc2ccc(O)cc2)C(=O)N[C@@H](C(C)C)C(=O)O[C@@H]1C [NOSTOCYCLIN]
IC50 [1]: > 100 µM | IC50 [2]: > 100 µM

CCCC(=O)N[C@@H](Cc1ccc(O)cc1)C(=O)N[C@@H](CCC(=O)N[C@@H]1C(=O)N[C@@H](CC(C)C)C(=O)N[C@H]2CC[C@@H](O)N(C2=O)[C@@H](C(C)C)C(=O)N(C)[C@@H](Cc2ccccc2)C(=O)N[C@@H]([C@@H](C)CC)C(=O)O[C@@H]1C)C(=O)O [MICROPEPTIN 88 E]
IC50 [1]: 5 µM | IC50 [2]: > 100 µM

CC[C@H](C)[C@@H]1NC(=O)[C@H](Cc2ccccc2)N(C)C(=O)[C@H](C(C)C)N2C(=O)[C@H](CC[C@H]2O)NC(=O)[C@H](Cc2ccc(O)cc2)NC(=O)[C@@H](NC(=O)CC[C@H](NC(=O)[C@H](Cc2ccc(O)cc2)NC(C)=O)C(=O)O)[C@@H](C)OC1=O [MICROPEPTIN 88 Y]
IC50 [1]: 1.3 µM | IC50 [2]: > 100 µM

CCCC(=O)N[C@@H](Cc1ccc(O)cc1)C(=O)N[C@@H](CCC(=O)N[C@@H]1C(=O)N[C@@H](CCC(=O)O)C(=O)N[C@H]2CC[C@@H](O)N(C2=O)[C@@H](C(C)C)C(=O)N(C)[C@@H](Cc2ccccc2)C(=O)N[C@@H]([C@@H](C)CC)C(=O)O[C@@H]1C)C(=O)O [MICROPEPTIN 88 B]
IC50 [1]: > 100 µM | IC50 [2]: > 100 µM
